Assay results taken from US20180015051A1, “MODULATORS OF ALPHA-DICARBONYL DETOXIFICATION AND THEIR USE FOR THE TREATMENT OF DIABETIC PATHOLOGIES” (Buck Institute for Research on Aging, priority 2016, published 2018).

Assays:
[1] = test system: C. elegans; assay: Neuronal damage assay, pan-neuronal GFP reporter (unc-33p::gfp); assay type: in vivo, Caenorhabditis elegans
Protocol: Animals were paralyzed using freshly prepared 5 mM levamisole in M9 buffer and mounted on 2% agar pads under glass coverslips. […] Images were acquired under 40× objective. Neuronal deterioration was examined and characterized by loss of fluorescent intensity of nerve ring, neuronal waviness, and thinning and fragmentation of axons and neuronal commissures. Quantification and imaging of animals harboring damage was performed using the Image J™ software (//imagei.nih.gov/ii/).

[2] = test system: glod-4 animals; assay: LC-MS/MS estimation of a-DC levels (MGO, GO) in worms; assay type: in vivo, Caenorhabditis elegans; settings: for Levels of GO / Levels of MGO: glod-4, PA; for Levels of GO: LA, or UMP (20 pM each) vs EtOH control; for Levels of MGO: LA, or UMP (20 pM) vs EtOH control
Protocol: Worms were cultured on NGM agar plates as explained before for lifespan experiments with some modifications: ˜100 animals/60 mm plates were used for each experimental replicate and animals were harvested at day 4 of adulthood with 20 pL M9 buffer in 1.5 mL eppendorf tubes. Worm suspensions were flash-frozen over liquid nitrogen and subsequently homogenized ultrasonically using a Fisher Scientific's 550 Sonic Dismembrator with 80 pL of sodium formate buffer (pH=3) containing 75 pM of 2,3-hexanedione (internal standard, IS). Two 20 s pulses at amplitude setting 4 of the instrument (on ice) were sufficient to completely homogenize worm bodies. To each homogenate tube 20 pL of 100 mg/mL o-phenelynediamine (OPD) solution in sodium formate buffer (pH=3) were added, and the mixture was allowed to react in dark at room temperature for ˜22 h. The long reaction time and the pH are critical parameters in this protocol: first to ensure complete derivatization of a-DCs bound reversibly to protein/glutathione —SHs; and second to prevent in vitro a-DC generation from glycolytic intermediates (DHAP, GAP, etc.) or due to DNA breakdown (Chaplen et al. (1998) Proc. Natl. Acad. Sci. USA, 95: 5533-5538). At the end of the stipulated reaction window, 12 pL of 5 M perchloric acid was added to each tube and incubated on ice for 30 min to ensure complete protein precipitation. Subsequently, the tubes were centrifuged at 10,000 rpm for 10 min, and the supernatant collected and neutralized with 30 pL 4 M NH4OH solution.
Optimization of analyte-specific MRM transitions, such as determination of suitable precursor and product ions and optimal MS parameters for each transition (Q1, precursor→Q3, product) were achieved by isocratic flow injection of the 10 pM solution (final) for each standard- or IS-OPD derivatives. The most intense (Q1→Q3) transition was used as quantifier, whereas the next best transition was used as qualifier for each compound (Table 4). For LC separation, a solvent gradient of 0.1% acetic acid in water (aqueous) - methanol (organic) was used with 0.4 mL/min flow rate, starting with an […] content of 3% for 0.7 min, which was increased to 100% over 6 min and held at 100% for 1.5 min. The LC column was subsequently reconstituted to its initial condition (methanol content of 3%) over the next 0.5 min and re-equilibrated for 3 min.
Derivatized metabolome extracts, as well as synthetic a-DCs were analyzed by scheduled LC-MRM in positive ion mode. To develop the scheduled LC-MRM method, MS/MS data was collected for all transitions across the length of each LC run for a mixture of synthetic GO-, MGO-, 3DG-, and 2,3-hexanedione (IS)-OPD derivatives (1 pL injection of 1 pM final concentration). Source conditions were as follows: curtain gas (CUR) 20, nebulizer gas (GS1) 60, auxiliary gas (GS2) 50, ionspray voltage (IS) 4500 V, and source temperature (TEM) 450° C. This step was undertaken to ascertain the LC retention times (RT) for the OPD derivatives. Several such sets were acquired to compute analyte-specific variability in RTs. Next, the MS was switched to operate in scheduled MRM mode, whereby the mass spectrometer acquired data for specific MRM transitions ±45 s around the computed RT for the analyte (Table 4). Relative quantification of GO, MGO, and 3DG were based on integration of corresponding OPD derivative-specific quantifier peaks obtained from scheduled LC-MRM runs (peak areas) and adjusted to the number of animals. To account for OPD derivatization efficiencies in individual tubes, sample-to-sample variability in MS response, and differential sample dilutions (both for synthetic a-DCs as well as a-DCs in worm homogenates), the peak areas were normalized to the quantifier peak area for IS-OPD for each sample.

[3] = test system: C. elegans; assay: Touch assay (touch index, gentle touch)
Protocol: For feeding RNAi bacteria, synchronized L1 larvae were transferred to NGM plates containing 1 mM of isopropyl P-D-1- thiogalactopyranoside/IPTG (referred to as RNAi plates) seeded with 20× concentrated HT1115 bacteria (cultured overnight at 20° C. at 220 rpm), carrying desired plasmid for RNAi of a specific gene or bacteria carrying empty vector pL4440 as control and allowed to grow on plates for 48 h. For drug assays, synchronized L4 larvae were transferred to either 60 mm NGM plates (with or without IPTG), freshly seeded with 5×E. coli OP50-1 or 20× HT1115 RNAi bacteria. Before seeding, the desired drug (or vehicle control) was mixed with the bacteria. Final drug concentrations were calculated considering the total volume of media and bacteria seeded on the NGM plates.
Briefly, each animal was touched alternately in the head region and in the tail with an eyelash. Typically, an omega turn or diversion in head direction resulting from anterior touch was counted as a positive response. Posterior touch response (not counted towards positive response) functioned towards resetting of the response to anterior touch. Touch index (TI) scores were generated by dividing the total number of positive responses over the […] per animal.
Synchronized glod-4 L1 animals were cultured on NGM agar plates seeded with E. coli OP50-1 until L4. […] Post-transfer into wells, animals were fed OP50-1 bacteria ad libitum while incubating at 20° C. on a rocker for 12 h. DMSO was used as control. Post-incubation with drug or DMSO, animals were transferred from wells onto NGM agar plates seeded with OP50-1 bacteria. Touch assay was performed on individual animal and touch index (TI) was calculated for each compound from the library as mentioned earlier.

SMILES | Neuronal damage ([1]; unc-33p::gfp on glod-4 RNAi, day 10 of adulthood, PA (20 pM) vs EtOH control) | Levels of GO [2] | Levels of MGO [2] | Levels of MGO under trpa-1 knockdown ([2]; glod-4 on trpa-1 RNAi, PA vs EtOH control) | Touch sensitivity (touch index), lack of touch sensitivity ([3]; glod-4, day 8 of adulthood, PA (20 pM) vs EtOH control) | Touch sensitivity (touch index), hyperesthesia ([3]; glod-4, young adult stage, PA (20 pM) vs EtOH control) | Neuronal damage ([1]; unc-33p::gfp, day 4 of adulthood, 7 mM MGO vs water) | Touch sensitivity (touch index) ([3]; N2 animals, young adult stage, 7 mM MGO vs water)
C[C@]1(C(=O)O)CCC[C@]2(C)c3cc(O)ccc3CC[C@@H]12 [PA, podocarpic acid] | prevent the prominent neuronal damages | almost wild-type-like levels | almost wild-type-like levels | no effect | lack of touch sensitivity to wild-type levels | revert the hyperesthesia |  | 
O=C(O)CCCCC1CCSS1 (stereo not shown) [LA, a-lipoic acid] |  | almost wild-type-like levels | almost wild-type-like levels |  |  |  |  | 
CC(=O)C=O [MGO, methylglyoxal] |  |  |  |  |  |  | neuronal damage | hyperesthesia
